What is called half-life is how long it takes for the measured level to halve. A higher half-life goes with slow decline. As usually defined, the EC50 is the concentration at which the effect is half-maximal.

The results in this text go back to patent US20240067693A1, “POLYPEPTIDES AND USES THEREOF” (MEDIMMUNE LIMITED, priority 2020, published 2024).

Numbered stars: 1 amine (or outer) side, 2 acyl side, 3 side chain; on linkers, the order of the positions; unused ones are H or OH. Bridge positions count the residues as written; N and C are the ends. Square brackets hold non-standard residues; d marks the D form. Side chains are listed from the residue outwards. Peptide text beside a SMILES is read from it. * marks the point of attachment. C20 diacid = O=C(O)CCCCCCCCCCCCCCCCCCC(=O)*; C18 diacid = O=C(O)CCCCCCCCCCCCCCCCC(=O)*; γGlu = O=C(O)[C@H](CCC(=O)[*:2])N[*:1]; αMeF = C[C@](N)(Cc1ccccc1)C(=O)O; AEEA = NCCOCCOCC(=O)O; Aib = CC(C)(N)C(=O)O

In one data set the test system is lean rats. Description: Rat acute food intake study. It counts as in vivo. The conditions noted are these: lean male Sprague Dawley rats, 20 nmol/kg subcutaneously. In outline:
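Male Sprague Dawley rats (n=7/group), fasted 6 h, received 20 nmol/kg test compound or 60 nmol/kg pramlintide subcutaneously 30 min before food return at dark onset. Food intake recorded automatically in home cages over 3 days, binned hourly and analysed as cumulative dark-period intake; body weight taken daily.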

The nature of data set [1]: Pharmacokinetic determination via IV and SC administration in Sprague Dawley rats. The conditions noted are these: male, rat, plasma, 20 nmol/kg.
The target in data set [2] is T1, rat amylin receptor (calcitonin receptor co-expressed with receptor activity modifying protein, RAMP3) (Rat AMYR3) (Rattus norvegicus, UniProt P32214+Q9JJ73).
T1 construct: expressed in transfected cells
T1 sequence (P32214 25-516): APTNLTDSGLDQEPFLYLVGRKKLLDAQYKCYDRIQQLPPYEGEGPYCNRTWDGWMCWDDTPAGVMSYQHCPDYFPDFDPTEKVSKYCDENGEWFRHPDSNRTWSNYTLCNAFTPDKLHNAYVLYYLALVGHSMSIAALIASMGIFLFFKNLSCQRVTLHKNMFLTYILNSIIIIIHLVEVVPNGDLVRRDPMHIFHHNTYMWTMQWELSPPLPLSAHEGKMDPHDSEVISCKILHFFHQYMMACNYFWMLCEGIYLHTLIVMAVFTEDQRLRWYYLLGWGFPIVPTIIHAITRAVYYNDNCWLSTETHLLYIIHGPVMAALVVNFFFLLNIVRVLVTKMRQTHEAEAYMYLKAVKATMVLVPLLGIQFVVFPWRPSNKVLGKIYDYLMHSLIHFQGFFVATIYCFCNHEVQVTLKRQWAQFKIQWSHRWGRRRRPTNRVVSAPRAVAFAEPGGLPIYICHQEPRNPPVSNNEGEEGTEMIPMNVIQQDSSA
T1 sequence (Q9JJ73 23-147 partner): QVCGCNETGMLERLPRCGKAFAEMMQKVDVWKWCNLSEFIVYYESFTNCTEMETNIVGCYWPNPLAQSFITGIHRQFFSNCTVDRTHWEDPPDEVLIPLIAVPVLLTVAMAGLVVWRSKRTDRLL
In words: cAMP production in HEK cells with stable recombinant expression of rat amylin receptor (Rat AMYR3). It counts as cell-based. The following applies: assay buffer with 0.1% BSA. In outline:
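Thawed cells in HBSS/0.1% BSA/25 mM HEPES pH 7.4 with 0.5 mM IBMX were incubated with peptides 30 min at room temperature; cAMP read by HTRF. EC50 from 4-parameter fit of % activation relative to maximal amylin or calcitonin effect.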

A short description of a further data set: in vivo. The following applies: male, Sprague-Dawley, rat, 20 nmol/kg.

On to `CC[C@H](C)[C@H](NC(=O)[C@@H]1CCCN1C(=O)CNC(=O)[C@H](Cc1ccccc1)NC(=O)[C@H](CC(N)=O)NC(=O)C(C)(C)NC(=O)[C@H](CO)NC(=O)[C@H](CO)NC(=O)[C@H](Cc1c[nH]cn1)NC(=O)[C@H](CCCNC(=N)N)NC(=O)[C@H](CC(C)C)NC(=O)[C@H](Cc1ccccc1)NC(=O)[C@H](CC(N)=O)NC(=O)[C@H](C)NC(=O)[C@H](CC(C)C)NC(=O)[C@H](CCCNC(=N)N)NC(=O)[C@H](CCC(N)=O)NC(=O)[C@@H](NC(=O)[C@H](C)NC(=O)[C@@H]1CSSC[C@H](NC(=O)[C@@H](N)CCCCNC(=O)CC[C@H](NC(=O)CCCCCCCCCCCCCCCCC(=O)O)C(=O)O)C(=O)N[C@@H](CC(N)=O)C(=O)N[C@@H]([C@@H](C)O)C(=O)N[C@@H](C)C(=O)N[C@@H]([C@@H](C)O)C(=O)N1)[C@@H](C)O)C(=O)N[C@@H](CC(C)C)C(=O)N1CCC[C@H]1C(=O)N1CCC[C@H]1C(=O)N[C@H](C(=O)N[C@@H](CC(N)=O)C(=O)N[C@H](C(=O)NCC(=O)N[C@@H](CO)C(=O)N[C@@H](CC(N)=O)C(=O)N[C@H](C(=O)N[C@@H](Cc1ccc(O)cc1)C(N)=O)[C@@H](C)O)C(C)C)[C@@H](C)O` [Peptide 48, K(γE-C18diacid)[CNTATC]ATQRLANFLRHSS(Aib)NFGPILPPTNVGSNTY-amide] (H-K([γGlu-C18 diacid])CNTATCATQRLANFLRHSS[Aib]NFGPILPPTNVGSNTY-NH2; disulfide 2-7; N-terminus assumed), for which, in the data set with lean rats, the “Cummulative food intake (% vehicle treated intake) At 12 h” value stood at 27.5 % vehicle treated intake, the “Cummulative food intake (% vehicle treated intake) At 24 h” value is given as 32.6 % vehicle treated intake and the “Cummulative food intake (% vehicle treated intake) At 48 h” value is listed as 57.1 % vehicle treated intake. In addition, the half-life in data set [1] (iv) was 5.6 h. The half-life in data set [1] (sc) is 8.1 h. The EC50 in data set [2] stood at 4.8 pM.
Take `CC[C@H](C)[C@H](NC(=O)[C@@H]1CCCN1C(=O)CNC(=O)[C@H](Cc1ccccc1)NC(=O)[C@H](CC(N)=O)NC(=O)C(C)(C)NC(=O)[C@H](CO)NC(=O)[C@H](CO)NC(=O)[C@H](Cc1c[nH]cn1)NC(=O)[C@H](CCCNC(=N)N)NC(=O)[C@H](CC(C)C)NC(=O)[C@H](Cc1ccccc1)NC(=O)[C@H](CC(N)=O)NC(=O)[C@H](C)NC(=O)[C@H](CC(C)C)NC(=O)[C@H](CCCNC(=N)N)NC(=O)[C@H](CCC(N)=O)NC(=O)[C@@H](NC(=O)[C@H](C)NC(=O)[C@@H]1CSSC[C@H](NC(=O)[C@@H](N)CCCCNC(=O)CC[C@H](NC(=O)CCCCCCCCCCCCCCCCC(=O)O)C(=O)O)C(=O)N[C@@H](CC(N)=O)C(=O)N[C@@H]([C@@H](C)O)C(=O)N[C@@H](C)C(=O)N[C@@H]([C@@H](C)O)C(=O)N1)[C@@H](C)O)C(=O)N[C@@H](CC(C)C)C(=O)N1CCC[C@H]1C(=O)N1CCC[C@H]1C(=O)N[C@H](C(=O)N[C@@H](CCC(=O)O)C(=O)N[C@H](C(=O)NCC(=O)N[C@@H](CO)C(=O)N[C@@H](CC(N)=O)C(=O)N[C@H](C(=O)N[C@@H](Cc1ccc(O)cc1)C(N)=O)[C@@H](C)O)C(C)C)[C@@H](C)O` [Peptide 44, K(γE-C18diacid)[CNTATC]ATQRLANFLRHSS(Aib)NFGPILPPTEVGSNTY-amide] (H-K([γGlu-C18 diacid])CNTATCATQRLANFLRHSS[Aib]NFGPILPPTEVGSNTY-NH2; disulfide 2-7; N-terminus assumed): in the data set with lean rats, the “Cummulative food intake (% vehicle treated intake) At 12 h” value was 33.5 % vehicle treated intake, the “Cummulative food intake (% vehicle treated intake) At 24 h” value came to 39.2 % vehicle treated intake and the “Cummulative food intake (% vehicle treated intake) At 48 h” value was determined as 60.7 % vehicle treated intake. In addition, the half-life in data set [1] (iv) was 8.9 h. Moreover, in data set [1] (sc), the half-life was 11 h. The EC50 in data set [2] is 18.5 pM.
For the molecule `CC[C@H](C)[C@H](NC(=O)[C@@H]1CCCN1C(=O)CNC(=O)[C@](C)(Cc1ccccc1)NC(=O)[C@H](CC(N)=O)NC(=O)[C@H](CC(N)=O)NC(=O)[C@H](CO)NC(=O)[C@H](CO)NC(=O)[C@H](Cc1c[nH]cn1)NC(=O)[C@H](CCCNC(=N)N)NC(=O)[C@H](CC(C)C)NC(=O)[C@H](Cc1ccccc1)NC(=O)[C@H](CC(N)=O)NC(=O)[C@H](C)NC(=O)[C@H](CC(C)C)NC(=O)[C@H](CCCNC(=N)N)NC(=O)[C@H](CCC(N)=O)NC(=O)[C@@H](NC(=O)[C@H](C)NC(=O)[C@@H]1CSSC[C@H](NC(=O)[C@@H](N)CCCCNC(=O)CC[C@H](NC(=O)CC[C@H](NC(=O)CCCCCCCCCCCCCCCCC(=O)O)C(=O)O)C(=O)O)C(=O)N[C@@H](CC(N)=O)C(=O)N[C@@H]([C@@H](C)O)C(=O)N[C@@H](C)C(=O)N[C@@H]([C@@H](C)O)C(=O)N1)[C@@H](C)O)C(=O)N[C@@H](CC(C)C)C(=O)N1CCC[C@H]1C(=O)N1CCC[C@H]1C(=O)N[C@H](C(=O)N[C@@H](CCC(=O)O)C(=O)N[C@H](C(=O)NCC(=O)N[C@@H](CO)C(=O)N[C@@H](CC(N)=O)C(=O)N[C@H](C(=O)N[C@@H](Cc1ccc(O)cc1)C(N)=O)[C@@H](C)O)C(C)C)[C@@H](C)O` [Peptide 18, K(γE-γE-C18diacid)[CNTATC]ATQRLANFLRHSSNN(αMePhe)GPILPPTEVGSNTY-amide] (H-K([γGlu-γGlu-C18 diacid])CNTATCATQRLANFLRHSSNN[αMeF]GPILPPTEVGSNTY-NH2; disulfide 2-7; N-terminus assumed), in the data set with lean rats, the “Cummulative food intake (% vehicle treated intake) At 12 h” value amounted to 45.8 % vehicle treated intake, the “Cummulative food intake (% vehicle treated intake) At 24 h” value is on record as 46.9 % vehicle treated intake and the “Cummulative food intake (% vehicle treated intake) At 48 h” value amounted to 68.8 % vehicle treated intake. The molecule further gave a half-life in data set [1] (iv) of 12 h. The molecule further had a half-life in data set [1] (sc) of 13.6 h. Moreover, the EC50 in data set [2] is 16.5 pM.
As for `CC[C@H](C)[C@H](NC(=O)[C@@H]1CCCN1C(=O)CNC(=O)[C@H](Cc1ccccc1)NC(=O)[C@H](CC(N)=O)NC(=O)[C@H](CC(N)=O)NC(=O)[C@H](CO)NC(=O)[C@H](CO)NC(=O)[C@H](Cc1c[nH]cn1)NC(=O)[C@@H](NC(=O)[C@H](CC(C)C)NC(=O)[C@H](Cc1ccccc1)NC(=O)[C@H](CC(N)=O)NC(=O)[C@H](C)NC(=O)[C@H](CC(C)C)NC(=O)[C@H](CCCNC(=N)N)NC(=O)[C@H](CCC(N)=O)NC(=O)[C@@H](NC(=O)[C@H](C)NC(=O)[C@@H]1CSSC[C@H](NC(=O)[C@H](CCCCN)NC(=O)COCCOCCNC(=O)COCCOCCNC(=O)CC[C@H](NC(=O)CCCCCCCCCCCCCCCCCCC(=O)O)C(=O)O)C(=O)N[C@@H](CC(N)=O)C(=O)N[C@@H]([C@@H](C)O)C(=O)N[C@@H](C)C(=O)N[C@@H]([C@@H](C)O)C(=O)N1)[C@@H](C)O)C(C)C)C(=O)N[C@@H](CC(C)C)C(=O)N1CCC[C@H]1C(=O)N1CCC[C@H]1C(=O)N[C@H](C(=O)N[C@@H](CC(N)=O)C(=O)N[C@H](C(=O)NCC(=O)N[C@@H](CO)C(=O)N[C@@H](CC(N)=O)C(=O)N[C@H](C(=O)N[C@@H](Cc1ccc(O)cc1)C(N)=O)[C@@H](C)O)C(C)C)[C@@H](C)O` [Peptide 113] ({C20 diacid-γGlu-AEEA-AEEA}-KCNTATCATQRLANFLVHSSNNFGPILPPTNVGSNTY-NH2; disulfide 2-7), in the data set on lean rats, the “Cummulative food intake (% vehicle treated intake) At 12 h” value is listed as 69.5 % vehicle treated intake, the “Cummulative food intake (% vehicle treated intake) At 24 h” value came out at 65.8 % vehicle treated intake and the “Cummulative food intake (% vehicle treated intake) At 48 h” value stood at 77.9 % vehicle treated intake. The molecule also had a half-life in “in vivo” (iv) of 11.2 h. In “in vivo” (sc), this molecule gave a half-life of 18.2 h. Besides, the 50% effective concentration (EC50) in data set [2] was found to be 32.6 pM.
